#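 In this assay, cells in 96-well plates receive the compound at five concentrations for 48 hours. Endpoints are linearly interpolated between the surrounding concentrations. At the GI50, growth is halved.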 Activity calls are given as the source filed them. Cut-off read from the data, not from the text of the source: active = GI50 up to about 1.1 µM and inactive = higher.
# Assays:
# Test in all cases: inhibition of tumour cell growth, NCI panel, 48 h
# 786-0 = system: 786-0
# A498 = system: A498
# A549 = system: A549
# ACHN = system: ACHN
# CCRF-CEM = system: CCRF-CEM
# COLO 205 = system: COLO 205
# DLD-1 = system: DLD-1
# DMS-114 = system: DMS-114
# DMS-273 = system: DMS-273
# EKVX = system: EKVX
# HCC 2998 = system: HCC 2998
# HCT-116 = system: HCT-116
# HCT-15 = system: HCT-15
# HL-60 = system: HL-60
# HOP-18 = system: HOP-18
# HOP-62 = system: HOP-62
# HOP-92 = system: HOP-92
# HT-29 = system: HT-29
# IGROV-1 = system: IGROV-1
# K562 = system: K562
# KM-20L2 = system: KM-20L2
# KM12 = system: KM12
# LOX IMVI = system: LOX IMVI
# M14 = system: M14
# M19-MEL = system: M19-MEL
# MOLT-4 = system: MOLT-4
# Malme-3M = system: Malme-3M
# NCI-H226 = system: NCI-H226
# NCI-H23 = system: NCI-H23
# NCI-H460 = system: NCI-H460
# OVCAR-3 = system: OVCAR-3
# OVCAR-4 = system: OVCAR-4
# OVCAR-5 = system: OVCAR-5
# OVCAR-8 = system: OVCAR-8
# RPMI-8226 = system: RPMI-8226
# RXF 393 = system: RXF 393
# RXF 631 = system: RXF 631
# SF-268 = system: SF-268
# SF-295 = system: SF-295
# SF-539 = system: SF-539
# SK-MEL-28 = system: SK-MEL-28
# SK-MEL-2 = system: SK-MEL-2
# SK-MEL-5 = system: SK-MEL-5
# SK-OV-3 = system: SK-OV-3
# SN12C = system: SN12C
# SNB-19 = system: SNB-19
# SNB-75 = system: SNB-75
# SR = system: SR
# SW-620 = system: SW-620
# TK-10 = system: TK-10
# U-251 = system: U-251
# UACC-257 = system: UACC-257
# UACC-62 = system: UACC-62
# UO-31 = system: UO-31
# XF498 = system: XF498
# CAKI-1 = system: CAKI-1
# LXFL 529 = system: LXFL 529
# SNB-78 = system: SNB-78
compound,measurement,setting,value
CSc1cnc2ccccc2c1Sc1cn(C)c2ccccc2c1=O,GI50,786-0,30.3 µM (inactive)
same,GI50,A498,36.2 µM (inactive)
same,GI50,A549,8.17 µM (inactive)
same,GI50,ACHN,> 100 µM (inactive)
same,GI50,CCRF-CEM,19.7 µM (inactive)
same,GI50,COLO 205,17 µM (inactive)
same,GI50,DLD-1,> 100 µM (inactive)
same,GI50,DMS-114,14.9 µM (inactive)
same,GI50,DMS-273,21.6 µM (inactive)
same,GI50,EKVX,29.3 µM (inactive)
same,GI50,HCC 2998,70.8 µM (inactive)
same,GI50,HCT-116,10.2 µM (inactive)
same,GI50,HCT-15,35.8 µM
same,GI50,HL-60,16 µM (inactive)
same,GI50,HOP-18,34 µM (inactive)
same,GI50,HOP-62,18 µM (inactive)
same,GI50,HOP-92,12 µM (inactive)
same,GI50,HT-29,58.5 µM (inactive)
same,GI50,IGROV-1,18.7 µM (inactive)
same,GI50,K562,7.82 µM (inactive)
same,GI50,KM-20L2,38.9 µM (inactive)
same,GI50,KM12,25.8 µM (inactive)
same,GI50,LOX IMVI,14.6 µM (inactive)
same,GI50,M14,> 100 µM (inactive)
same,GI50,M19-MEL,56 µM (inactive)
same,GI50,MOLT-4,53.2 µM (inactive)
same,GI50,Malme-3M,> 100 µM (inactive)
same,GI50,NCI-H226,26.1 µM (inactive)
same,GI50,NCI-H23,19.5 µM (inactive)
same,GI50,NCI-H460,13.2 µM (inactive)
same,GI50,OVCAR-3,28.7 µM (inactive)
same,GI50,OVCAR-4,34.8 µM (inactive)
same,GI50,OVCAR-5,> 100 µM (inactive)
same,GI50,OVCAR-8,18.5 µM (inactive)
same,GI50,RPMI-8226,17.9 µM (inactive)
same,GI50,RXF 393,38.4 µM (inactive)
same,GI50,RXF 631,10 µM (inactive)
same,GI50,SF-268,9.14 µM (inactive)
same,GI50,SF-295,22.6 µM (inactive)
same,GI50,SF-539,29 µM (inactive)
same,GI50,SK-MEL-28,27.9 µM (inactive)
same,GI50,SK-MEL-2,21.8 µM (inactive)
same,GI50,SK-MEL-5,24.4 µM (inactive)
same,GI50,SK-OV-3,17.6 µM (inactive)
same,GI50,SN12C,28.8 µM (inactive)
same,GI50,SNB-19,19.1 µM (inactive)
same,GI50,SNB-75,17 µM (inactive)
same,GI50,SR,12.6 µM (inactive)
same,GI50,SW-620,70.6 µM (inactive)
same,GI50,TK-10,> 100 µM (inactive)
same,GI50,U-251,7.14 µM (inactive)
same,GI50,UACC-257,59.4 µM (inactive)
same,GI50,UACC-62,21.9 µM (inactive)
same,GI50,UO-31,25.5 µM (inactive)
same,GI50,XF498,21.9 µM (inactive)
Cn1cc(NC(=O)c2cc(NC(=O)Nc3cc(C(=O)Nc4cc(C(=O)NCCC(=N)N)n(C)c4)n(C)c3)cn2C)cc1C(=O)NCCC(=N)N,GI50,786-0,20.7 µM (inactive)
same,GI50,A498,25.1 µM (inactive)
same,GI50,A549,29.4 µM (inactive)
same,GI50,ACHN,25.2 µM (inactive)
same,GI50,CAKI-1,30.5 µM (inactive)
same,GI50,CCRF-CEM,22 µM (inactive)
same,GI50,COLO 205,33 µM (inactive)
same,GI50,DLD-1,> 100 µM (inactive)
same,GI50,DMS-114,49.3 µM (inactive)
same,GI50,DMS-273,13.6 µM (inactive)
same,GI50,EKVX,52.2 µM (inactive)
same,GI50,HCC 2998,48.1 µM (inactive)
same,GI50,HCT-116,37.2 µM (inactive)
same,GI50,HCT-15,> 100 µM
same,GI50,HL-60,60.7 µM (inactive)
same,GI50,HOP-18,71.4 µM (inactive)
same,GI50,HOP-62,39.8 µM (inactive)
same,GI50,HOP-92,42.2 µM (inactive)
same,GI50,HT-29,> 100 µM (inactive)
same,GI50,IGROV-1,24.5 µM (inactive)
same,GI50,K562,51.8 µM (inactive)
same,GI50,KM-20L2,60.5 µM (inactive)
same,GI50,KM12,17 µM (inactive)
same,GI50,LOX IMVI,25.4 µM (inactive)
same,GI50,LXFL 529,56.5 µM (inactive)
same,GI50,M14,20.4 µM (inactive)
same,GI50,M19-MEL,20.4 µM (inactive)
same,GI50,MOLT-4,> 100 µM (inactive)
same,GI50,Malme-3M,24.9 µM (inactive)
same,GI50,NCI-H23,37.4 µM (inactive)
same,GI50,NCI-H460,17.3 µM (inactive)
same,GI50,OVCAR-3,41.1 µM (inactive)
same,GI50,OVCAR-4,38.7 µM (inactive)
same,GI50,OVCAR-5,> 100 µM (inactive)
same,GI50,OVCAR-8,22.8 µM (inactive)
same,GI50,RXF 393,22.4 µM (inactive)
same,GI50,RXF 631,23.1 µM (inactive)
same,GI50,SF-268,36.4 µM (inactive)
same,GI50,SF-295,33.9 µM (inactive)
same,GI50,SF-539,18 µM (inactive)
same,GI50,SK-MEL-28,25.4 µM (inactive)
same,GI50,SK-MEL-5,17.4 µM (inactive)
same,GI50,SK-OV-3,> 100 µM (inactive)
same,GI50,SN12C,86.7 µM (inactive)
same,GI50,SNB-19,> 100 µM (inactive)
same,GI50,SNB-75,40.5 µM (inactive)
same,GI50,SNB-78,38.5 µM (inactive)
same,GI50,SR,44.2 µM (inactive)
same,GI50,SW-620,> 100 µM (inactive)
same,GI50,TK-10,22.5 µM (inactive)
same,GI50,U-251,26.6 µM (inactive)
same,GI50,UACC-257,17.7 µM (inactive)
same,GI50,UACC-62,16.9 µM (inactive)
same,GI50,UO-31,33.1 µM (inactive)
same,GI50,XF498,21 µM (inactive)
